From paper PMC10916382, “Repurposing screen identifies novel candidates for broad-spectrum coronavirus antivirals and druggable host targets” (Antimicrobial Agents and Chemotherapy, 2024)
pIC50: −log10 of the molar value. Counter-ions that a name gives are not always drawn. Like-named read-outs stand apart in the source and are kept apart here.

Assays:
[1] = tested on: HCoV-229E; test: microbe, parasite or virus in culture; format: cell-based, Homo sapiens sapiens; details: for IC50: Huh7.5, read-out: IC50 (µM), HCoV 229E
[2] = tested on: Huh-7.5/F-Luc cells
[3] = tested on: SARS-CoV-2
[4] = tested on: SARS-CoV-2; details: for outcome against confirmation criteria of the SARS-CoV-2 counter-screen (<50% infected cell, >75% total cells): single dose of 5 µM
[5] = in vitro; details: for viability: Anti-SARS-CoV-2 screening on Calu-3 cells: viability [% of control], Calu-3 cells
[6] = tested on: SARS-CoV-2; format: cell-based; details: dose range 0.15 µM to 10 µM, viral genome copies in apical washes and cellular lysates
[7] = tested on: SARS-CoV-2; test: microbe, parasite or virus in culture; details: Severe acute respiratory syndrome coronavirus 2, Calu-3, 48 h
[8] = tested on: SARS-CoV-2; details: cited from earlier work
[9] = in vitro; details: human
[10] = Huh-7.5 cells, dose series, maximum tested dose 5 µM
[11] = Calu-3 cells, immunofluorescence imaging
[12] = Calu-3 cells, screening dose 5 µM, 48 hours post-inoculation
[13] = Huh-7.5/F-Luc cells, maximum tested dose 5 µM

Structure (SMILES)	Anti-SARS-CoV-2 screening on Calu-3 cells: intracellular SARS-CoV-2 infection measured via immunofluorescence imaging [% of control] [4, 11]	viability [5]	IC50 ([1]; Human coronavirus 229E)	CC50 (µM) [2, 13]	viability at 5 µM [9]	further results
COc1cc(F)ccc1-c1cc(Nc2cc(CS(C)(=N)=O)ccn2)ncc1F (single isomer, unassigned; (+)) [(+)-BAY-1251152, reference compound]	51.46 % of control	–	–	–	–	pIC50 ([1]; HCoV 229E infection, dose series, max. dose 5 µM, read-out: IC50): 6.89; CC50 (µM) [2, 10]: greater than maximum tested dose; % cell viability at max. dose [5 µM] ([2]; at max. dose 5 µM): 115.26%; virus load in the culture fluid [3]: reduced virus load; Anti-SARS-CoV-2 screening on Calu-3 cells: viability [% of control] ([4]; Calu-3 cells): 100.11 % of control; outcome against confirmation criteria of the SARS-CoV-2 counter-screen (<50% infected cell, >75% total cells) ([4]; Calu-3 cells): did not meet our stringent confirmation criteria
COCCN1CCN(Cc2ccc(-c3n[nH]c4c3C(=O)c3c(NC(=O)NN5CCOCC5)cccc3-4)cc2)CC1 [RGB-286638, reference compound]	123.82 % of control	19%	–	–	–	pIC50 ([1]; Human coronavirus 229E, Huh7.5): 6.92; CC50 (µM) [2, 10]: greater than maximum tested dose; virus load in the culture fluid [3, 12]: reduced virus load; outcome against confirmation criteria of the SARS-CoV-2 counter-screen (<50% infected cell, >75% total cells) ([4]; Calu-3 cells): did not meet our stringent confirmation criteria
CC1(C)CC[C@]2(C(=O)O)CC[C@]3(C)[C@H](C(=O)C=C4[C@@]5(C)C=C(C#N)C(=O)C(C)(C)[C@@H]5CC[C@]43C)[C@@H]2C1 [Bardoxolone, reference compound]	95.03 % of control	–	–	–	–	pIC50 ([1]; Human coronavirus 229E, Huh7.5): 7.40; pIC50 ([1]; Human coronavirus 229E, Huh7.5, 48 h, read-out: IC50 against HCoV-229E): 7.43; antiviral activity against SARS-CoV-2 in HAE cells [6]: the reduction in viral genome copies could not be separated from an increase in cytotoxicity; SI (CC50/IC50) ([3]; Calu-3 cells, CC50 from LDH assay / IC50 from qRT-PCR): 3.90; outcome against confirmation criteria of the SARS-CoV-2 counter-screen (<50% infected cell, >75% total cells) ([4]; Calu-3 cells): did not meet the inclusion criteria; viability at 48 h, 5 µM [5]: 118%; pIC50 [7]: 5.72; IC90 [7]: 7030 nM
COC(=O)/C=C/C(=O)OC [DMF, dimethyl fumarate]	–	–	–	–	–	anti-SARS-CoV-2 effects [8]: anti-SARS-CoV-2 effects at high concentrations
CCc1cnn2c(NCc3ccc[n+]([O-])c3)cc(N3CCCC[C@H]3CCO)nc12 [Dinaciclib, reference compound]	–	–	–	–	–	CC50 (µM) [2]: greater than maximum tested dose; virus load in the culture fluid [3, 12]: reduced virus load; Anti-SARS-CoV-2 screening on Calu-3 cells: intracellular SARS-CoV-2 infection measured via immunofluorescence imaging [% of control] [4]: 72.14 % of control; outcome against confirmation criteria of the SARS-CoV-2 counter-screen (<50% infected cell, >75% total cells) ([4]; Calu-3 cells): did not meet our stringent confirmation criteria; inhibition of SARS-CoV-2 infection ([8]; Vero E6 and A549/ACE2 cells): nanomolar efficacy; viability at 48 h, 5 µM [5]: 29.7%
O=Cc1c2[nH]c3ccccc3c2cc2[nH]c3ccccc3c12 [FICZ, 6-formylindolo(3,2-b) carbazole]	–	–	–	–	–	inhibition of SARS-CoV-2 infection ([8]; Vero cells): inhibited SARS-CoV-2 infection of Vero cells
COc1cc(Nc2ncc(F)c(Nc3ccc4c(n3)N(COP(=O)(O)O)C(=O)C(C)(C)O4)n2)cc(OC)c1OC [RFM-004-140-7]	134.69 % of control	–	4.09 µM	greater than maximum tested dose	93.7%	viability at 48 h, 5 µM [5]: 86.2%
CN1C[C@H](CNC(=O)OCc2ccccc2)C[C@@H]2c3cccc4c3c(cn4C)C[C@H]21 [RFM-005-941-6]	125.57 % of control	–	1.26 µM	greater than maximum tested dose	163%	viability at 48 h, 5 µM [5]: 117%
CC(=O)N(C)C1(c2ccccc2)CCN(CCC[C@]2(c3ccc(Cl)c(Cl)c3)CCCN(C(=O)c3ccccc3)C2)CC1 [RFM-000-080-6]	106.27 % of control	113%	1.5 µM	greater than maximum tested dose	131%	–
CCN1[C@@H]2CC[C@H]1C[C@@H](OC(c1ccccc1)c1ccccc1)C2 [RFM-011-925-5]	108.20 % of control	117%	1.62 µM	greater than maximum tested dose	136%	–
CC(C)NCC(O)COc1ccc(CC(=O)OCCC23CC4CC(CC(C4)C2)C3)cc1 (centres unmarked) [RFM-010-929-5]	113.56 % of control	90.2%	1.76 µM	greater than maximum tested dose	122%	–
CN(C)C(=O)NC1(c2ccccc2)CCN(CCC[C@]2(c3ccc(Cl)c(Cl)c3)CCCN(C(=O)c3ccccc3)C2)CC1 [RFM-003-485-5]	114.56 % of control	109%	1.64 µM	greater than maximum tested dose	172%	–
CCN(CC)CCOc1ccc(-c2nc3cc(Cl)ccc3s2)cc1 [RFM-005-834-4]	104.24 % of control	88.8%	1.51 µM	greater than maximum tested dose	91.6%	–
CCCCc1oc2ccc(C(=O)OC(C)C)cc2c1C(=O)c1ccc(CCCN(CCCC)CCCC)cc1 [RFM-009-487-1]	97.65 % of control	87.8%	1.23 µM	greater than maximum tested dose	122%	–
C=C(CC(=O)OCCCCCCCC)C(=O)O [4-OI, 4-octyl-itaconate]	–	–	–	–	–	anti-SARS-CoV-2 effects [8]: anti-SARS-CoV-2 effects at high concentrations
CN(C)CCOC(c1ccccc1)c1ccc(Br)cc1 (centres unmarked) [RFM-010-846-3]	102.09 % of control	92.2%	2.14 µM	greater than maximum tested dose	157%	–
COc1ccc2[nH]c([S+]([O-])Cc3ncc(C)c(OC)c3C)nc2c1 (centres unmarked) [OMP, omeprazole]	–	–	–	–	–	inhibition of SARS-CoV-2 infection ([8]; Vero cells): inhibited SARS-CoV-2 infection of Vero cells
